From patent US20080009418A1, “Selective Inhibitors” (Alchemia LTD., priority 2004, published 2008)

What was measured:
[1] = biological target: T1, Human neurokinin (NK1) (Homo sapiens, UniProt P25103); assay: Radioligand binding, human neurokinin NK1 membranes, filtration, [125I]-Substance P; conditions: compound at 10 μM, [125I]-Substance P; for A8: inhibition of radioligand binding: human NK1 membranes
T1 construct: purchased Perkin Elmer Biosignal
Outline: (§1)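 Percent inhibition of radioligand binding measured on recombinant human membranes: NK1 with [125I]-Substance P, KOP with [3H]-Diprenorphine. Incubation 1 h at room temperature, then harvest onto 0.3% PEI-soaked filters, cold Tris-HCl pH 7.4 washes and scintillation counting; non-specific binding from reference ligand wells.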

[2] = biological target: T2, Mouse urotensin (mUR2) (Mus musculus, UniProt Q8VIH9); assay: Radioligand binding, mouse urotensin mUR2 membranes, FlashPlate, [125I]-Urotensin II; conditions: compound at 10 μM, [125I]-Urotensin II; for A11: inhibition of radioligand binding: mouse mUR2 membranes
T2 construct: purchased Perkin Elmer Biosignal
T2 sequence (Q8VIH9 1-385): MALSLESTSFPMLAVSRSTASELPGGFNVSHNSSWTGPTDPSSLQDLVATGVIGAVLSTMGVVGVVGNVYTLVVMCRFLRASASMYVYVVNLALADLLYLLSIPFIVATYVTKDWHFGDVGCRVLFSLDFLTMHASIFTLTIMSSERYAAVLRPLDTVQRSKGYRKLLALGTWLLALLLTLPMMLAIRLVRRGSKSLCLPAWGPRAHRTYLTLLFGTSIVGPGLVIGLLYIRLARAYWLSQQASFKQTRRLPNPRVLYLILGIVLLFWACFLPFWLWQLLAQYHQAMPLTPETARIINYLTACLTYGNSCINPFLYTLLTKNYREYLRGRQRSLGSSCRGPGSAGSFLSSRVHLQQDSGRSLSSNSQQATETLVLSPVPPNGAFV
Outline: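 Cloned mouse urotensin (mUR2) receptor membranes from Perkin Elmer Biosignal were immobilized in FlashPlate microplates using a proprietary coating. Each well got 19.5 μl buffer, then 0.5 μl of DMSO, reference ligand, or compound. Adding 5 μl of [125I]-Urotensin II, diluted to 5× final concentration in binding buffer, started binding. Plates were sealed with TopSeal-A and incubated 1 hour at room temperature in the dark. Wells were counted for 30 seconds each on a TopCount after a 60-second delay, and percentage inhibition was calculated.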

[3] = biological target: T3, Human melanin-concentrating hormone (MCH1) (Homo sapiens, UniProt Q99705); assay: Radioligand binding, human melanin-concentrating hormone MCH1 membranes, FlashPlate, [125I]-S36057; conditions: compound at 10 μM; for A6: inhibition of radioligand binding: [125I]-S36057, human MCH1 membranes
T3 construct: purchased Perkin Elmer Biosignal
T3 sequence (Q99705 whole entry): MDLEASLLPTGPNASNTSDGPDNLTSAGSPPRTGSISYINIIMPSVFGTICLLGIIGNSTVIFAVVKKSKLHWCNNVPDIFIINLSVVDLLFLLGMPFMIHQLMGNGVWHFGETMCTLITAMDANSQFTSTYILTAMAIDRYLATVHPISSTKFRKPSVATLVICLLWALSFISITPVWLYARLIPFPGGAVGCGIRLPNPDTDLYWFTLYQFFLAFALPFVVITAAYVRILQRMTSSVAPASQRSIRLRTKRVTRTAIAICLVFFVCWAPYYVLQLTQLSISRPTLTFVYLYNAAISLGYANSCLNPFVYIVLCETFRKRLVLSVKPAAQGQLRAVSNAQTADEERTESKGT
Outline: (§2)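 Cloned human receptor membranes were coated onto FlashPlate wells and incubated with radioligand and compound (added from a 0.5 mM DMSO daughter plate) for 1 hour at room temperature in the dark. Scintillation counting gave percent inhibition, with DMSO defining total and reference ligand defining non-specific binding.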

[4] = biological target: T4, Human Melanocortin (MC4) (Homo sapiens, UniProt P32245); assay: Radioligand binding, human melanocortin MC4 membranes, FlashPlate, [125I]-NDP-αMSH; conditions: compound at 10 μM, [125I]-NDP-αMSH; for A4: inhibition of radioligand binding: human MC4 membranes
T4 construct: purchased Perkin Elmer Biosignal
T4 sequence (P32245 whole entry): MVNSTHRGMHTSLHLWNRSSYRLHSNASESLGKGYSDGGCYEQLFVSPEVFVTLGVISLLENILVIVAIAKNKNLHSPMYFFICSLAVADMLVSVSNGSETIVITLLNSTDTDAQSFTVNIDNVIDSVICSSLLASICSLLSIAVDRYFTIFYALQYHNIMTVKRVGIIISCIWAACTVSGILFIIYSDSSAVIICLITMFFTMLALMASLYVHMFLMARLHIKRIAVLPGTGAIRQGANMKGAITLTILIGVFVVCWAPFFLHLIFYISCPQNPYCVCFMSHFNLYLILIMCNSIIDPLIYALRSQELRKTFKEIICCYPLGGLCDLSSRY
Outline: as §2

[5] = biological target: T5, Human κ-Opioid (KOP) (Homo sapiens, UniProt P41145); assay: Radioligand binding, human κ-opioid (KOP) membranes, filtration, [3H]-Diprenorphine; conditions: compound at 10 μM, [3H]-Diprenorphine; for A2: inhibition of radioligand binding: human KOP membranes
T5 construct: purchased Perkin Elmer Biosignal
T5 sequence (P41145 whole entry): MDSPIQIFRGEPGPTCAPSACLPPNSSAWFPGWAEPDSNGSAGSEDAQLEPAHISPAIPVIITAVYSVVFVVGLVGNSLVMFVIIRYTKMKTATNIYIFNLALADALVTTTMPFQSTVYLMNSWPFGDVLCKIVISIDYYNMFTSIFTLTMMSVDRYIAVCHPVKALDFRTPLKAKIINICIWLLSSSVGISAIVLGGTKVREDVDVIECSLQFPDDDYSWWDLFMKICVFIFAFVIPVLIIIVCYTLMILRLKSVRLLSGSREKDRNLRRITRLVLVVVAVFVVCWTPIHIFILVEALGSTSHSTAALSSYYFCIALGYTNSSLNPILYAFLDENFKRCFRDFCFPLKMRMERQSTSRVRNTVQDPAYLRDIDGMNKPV
Outline: as §1

[6] = biological target: T6, Human δ-opioid (DOP) (Homo sapiens, UniProt P41143); assay: Radioligand binding, human δ-opioid (DOP) membranes, FlashPlate, [3H]-Bremazocine; conditions: compound at 10 μM, [3H]-Bremazocine; for A1: inhibition of radioligand binding: human DOP membranes
T6 construct: purchased Perkin Elmer Biosignal
T6 sequence (P41143 whole entry): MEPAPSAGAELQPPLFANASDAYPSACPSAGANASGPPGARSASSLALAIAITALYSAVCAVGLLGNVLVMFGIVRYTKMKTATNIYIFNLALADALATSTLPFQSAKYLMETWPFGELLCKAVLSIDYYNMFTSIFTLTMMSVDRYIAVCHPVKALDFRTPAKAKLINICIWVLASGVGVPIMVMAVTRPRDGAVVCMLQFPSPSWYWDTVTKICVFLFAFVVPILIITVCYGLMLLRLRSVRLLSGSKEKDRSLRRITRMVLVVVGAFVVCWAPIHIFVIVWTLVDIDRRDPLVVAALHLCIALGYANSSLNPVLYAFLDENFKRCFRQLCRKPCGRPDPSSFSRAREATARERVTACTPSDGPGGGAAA
Outline: as §2

[7] = biological target: T7, Human melanocortin (MC5) (Homo sapiens, UniProt P33032); assay: Radioligand binding, human melanocortin MC5 membranes, FlashPlate, [125I]-NDP-αMSH; conditions: compound at 10 μM, [125I]-NDP-αMSH; for A5: inhibition of radioligand binding: human MC5 membranes
T7 construct: purchased Perkin Elmer Biosignal
T7 sequence (P33032 whole entry): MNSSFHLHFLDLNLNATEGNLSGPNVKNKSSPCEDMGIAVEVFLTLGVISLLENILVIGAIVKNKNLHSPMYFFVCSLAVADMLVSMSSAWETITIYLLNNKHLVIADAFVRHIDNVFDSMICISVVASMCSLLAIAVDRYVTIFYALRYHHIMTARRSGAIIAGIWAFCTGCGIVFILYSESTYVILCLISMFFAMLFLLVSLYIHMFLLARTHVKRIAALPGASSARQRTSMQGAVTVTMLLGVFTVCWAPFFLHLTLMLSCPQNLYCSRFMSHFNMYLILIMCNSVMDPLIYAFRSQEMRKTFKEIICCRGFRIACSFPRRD
Outline: as §2

[8] = biological target: T8, Human opioid (ORL1) (Homo sapiens, UniProt P41146); assay: Radioligand binding, human opioid ORL1 membranes, FlashPlate, [125I]-Nociceptin; conditions: compound at 10 μM, [125I]-Nociceptin; for A10: inhibition of radioligand binding: human ORL1 membranes
T8 construct: purchased Perkin Elmer Biosignal
T8 sequence (P41146 whole entry): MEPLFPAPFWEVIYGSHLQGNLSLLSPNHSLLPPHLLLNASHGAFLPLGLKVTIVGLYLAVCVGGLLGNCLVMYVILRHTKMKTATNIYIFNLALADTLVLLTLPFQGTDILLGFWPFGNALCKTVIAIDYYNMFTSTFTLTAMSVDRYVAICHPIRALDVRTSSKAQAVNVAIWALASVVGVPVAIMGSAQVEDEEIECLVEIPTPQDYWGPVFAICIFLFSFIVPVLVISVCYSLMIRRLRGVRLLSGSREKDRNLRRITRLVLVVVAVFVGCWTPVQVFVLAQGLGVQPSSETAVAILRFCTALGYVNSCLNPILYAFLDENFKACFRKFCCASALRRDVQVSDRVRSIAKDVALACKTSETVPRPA
Outline: as §2

[9] = biological target: T9, Human Melanocortin (MC3) (Homo sapiens, UniProt P41968); assay: Radioligand binding, human melanocortin MC3 membranes, FlashPlate, [125I]-NDP-αMSH; conditions: compound at 10 μM, [125I]-NDP-αMSH; for A3: inhibition of radioligand binding: human MC3 membranes
T9 construct: purchased Perkin Elmer Biosignal
T9 sequence (P41968 whole entry): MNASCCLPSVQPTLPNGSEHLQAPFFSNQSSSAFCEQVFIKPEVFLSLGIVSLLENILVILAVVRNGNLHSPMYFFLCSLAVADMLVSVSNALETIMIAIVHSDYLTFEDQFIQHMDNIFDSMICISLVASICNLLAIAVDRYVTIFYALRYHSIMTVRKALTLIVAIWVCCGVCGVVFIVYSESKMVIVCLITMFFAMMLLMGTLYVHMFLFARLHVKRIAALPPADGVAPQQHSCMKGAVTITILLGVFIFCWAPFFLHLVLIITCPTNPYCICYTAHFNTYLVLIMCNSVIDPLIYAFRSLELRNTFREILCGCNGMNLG
Outline: as §2

[10] = biological target: T10, Human neuropeptide Y (NPY-Y1) (Homo sapiens, UniProt P25929); assay: Radioligand binding, human neuropeptide Y NPY-Y1 membranes, FlashPlate, [125I]-PYY; conditions: compound at 10 μM, [125I]-PYY; for A9: inhibition of radioligand binding: human NPY-Y1 membranes
T10 construct: purchased Perkin Elmer Biosignal
T10 sequence (P25929 1-384): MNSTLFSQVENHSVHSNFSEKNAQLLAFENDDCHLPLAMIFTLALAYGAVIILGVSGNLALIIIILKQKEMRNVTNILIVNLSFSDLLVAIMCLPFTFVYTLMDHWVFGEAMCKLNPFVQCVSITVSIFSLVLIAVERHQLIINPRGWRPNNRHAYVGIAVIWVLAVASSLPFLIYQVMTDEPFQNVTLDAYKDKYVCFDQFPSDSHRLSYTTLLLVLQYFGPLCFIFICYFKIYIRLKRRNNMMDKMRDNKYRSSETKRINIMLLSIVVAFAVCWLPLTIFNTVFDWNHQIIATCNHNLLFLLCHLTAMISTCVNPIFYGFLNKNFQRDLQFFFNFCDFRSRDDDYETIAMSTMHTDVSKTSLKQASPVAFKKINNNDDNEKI
Outline: as §2

[11] = biological target: T11, Human μ-opioid (MOP) (Homo sapiens, UniProt P35372); assay: Radioligand binding, human μ-opioid (MOP) membranes, FlashPlate, [3H]-Naloxone; conditions: compound at 10 μM, [3H]-Naloxone; for A7: inhibition of radioligand binding: human MOP membranes
T11 construct: purchased Perkin Elmer Biosignal
T11 sequence (P35372 whole entry): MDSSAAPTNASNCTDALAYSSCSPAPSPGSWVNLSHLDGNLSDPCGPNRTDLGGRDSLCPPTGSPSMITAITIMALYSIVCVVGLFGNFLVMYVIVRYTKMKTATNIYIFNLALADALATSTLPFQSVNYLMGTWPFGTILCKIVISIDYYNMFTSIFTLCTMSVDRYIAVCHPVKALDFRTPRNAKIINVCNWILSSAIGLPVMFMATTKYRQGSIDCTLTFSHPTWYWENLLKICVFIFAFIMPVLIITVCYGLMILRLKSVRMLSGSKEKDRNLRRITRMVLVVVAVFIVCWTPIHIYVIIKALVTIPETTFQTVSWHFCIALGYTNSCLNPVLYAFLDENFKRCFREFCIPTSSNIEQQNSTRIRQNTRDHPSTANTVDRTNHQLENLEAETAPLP
Outline: as §2

T1 sequence (P25103 whole entry): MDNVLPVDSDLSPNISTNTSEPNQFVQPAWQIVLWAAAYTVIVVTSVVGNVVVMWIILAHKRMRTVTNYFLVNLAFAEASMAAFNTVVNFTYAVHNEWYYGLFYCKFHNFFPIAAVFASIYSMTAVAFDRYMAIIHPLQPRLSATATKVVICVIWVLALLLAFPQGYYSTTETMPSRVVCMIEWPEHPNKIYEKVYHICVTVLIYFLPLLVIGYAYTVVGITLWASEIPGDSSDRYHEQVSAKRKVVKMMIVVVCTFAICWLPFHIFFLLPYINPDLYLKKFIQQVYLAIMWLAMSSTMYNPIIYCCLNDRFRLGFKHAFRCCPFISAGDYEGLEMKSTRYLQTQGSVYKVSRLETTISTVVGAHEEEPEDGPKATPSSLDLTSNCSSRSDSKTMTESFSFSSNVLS

NCCC(=O)N[C@H]1C(OCc2ccc3ccccc3c2)O[C@H](COCc2ccccc2)[C@@H](O)[C@@H]1OCc1ccccc1 (stereo partly shown) [compound 450]
A8: inhibition of radioligand binding [1]: + (“+” indicates greater than 50% inhibition at 10 μM) | A11: inhibition of radioligand binding [2]: − (“−” indicates less than 50% inhibition at 10 μM) | A6: inhibition of radioligand binding [3]: − (“−” indicates less than 50% inhibition at 10 μM) | A4: inhibition of radioligand binding [4]: − (“−” indicates less than 50% inhibition at 10 μM) | A2: inhibition of radioligand binding [5]: − (“−” indicates less than 50% inhibition at 10 μM) | A1: inhibition of radioligand binding [6]: − (“−” indicates less than 50% inhibition at 10 μM) | A5: inhibition of radioligand binding [7]: − (“−” indicates less than 50% inhibition at 10 μM) | A10: inhibition of radioligand binding [8]: − (“−” indicates less than 50% inhibition at 10 μM) | A3: inhibition of radioligand binding [9]: − (“−” indicates less than 50% inhibition at 10 μM) | A9: inhibition of radioligand binding [10]: − (“−” indicates less than 50% inhibition at 10 μM) | A7: inhibition of radioligand binding [11]: − (“−” indicates less than 50% inhibition at 10 μM)

N=C(N)NCC(=O)NC1C(OCc2ccc(Cl)cc2)OC(COCc2ccc(Cl)cc2)C(O)C1OCc1ccc(-c2ccccc2)cc1 (stereo not shown) [compound 425]
A8: inhibition of radioligand binding [1]: + (“+” indicates greater than 50% inhibition at 10 μM) | A11: inhibition of radioligand binding [2]: − (“−” indicates less than 50% inhibition at 10 μM) | A6: inhibition of radioligand binding [3]: + (“+” indicates greater than 50% inhibition at 10 μM) | A4: inhibition of radioligand binding [4]: + (“+” indicates greater than 50% inhibition at 10 μM) | A2: inhibition of radioligand binding [5]: − (“−” indicates less than 50% inhibition at 10 μM) | A1: inhibition of radioligand binding [6]: − (“−” indicates less than 50% inhibition at 10 μM) | A5: inhibition of radioligand binding [7]: + (“+” indicates greater than 50% inhibition at 10 μM) | A10: inhibition of radioligand binding [8]: + (“+” indicates greater than 50% inhibition at 10 μM) | A3: inhibition of radioligand binding [9]: + (“+” indicates greater than 50% inhibition at 10 μM) | A9: inhibition of radioligand binding [10]: − (“−” indicates less than 50% inhibition at 10 μM) | A7: inhibition of radioligand binding [11]: − (“−” indicates less than 50% inhibition at 10 μM)

CO[C@H]1[C@H](O)[C@@H](COCc2ccccc2)OC(OCc2ccc(Cl)cc2)[C@@H]1NC(=O)CCNC(=N)N (stereo partly shown) [compound 102]
A8 radioligand binding, percentage inhibition [1]: − (“−” indicates less than 50% inhibition at 10 μM) | A11 radioligand binding, percentage inhibition [2]: − (“−” indicates less than 50% inhibition at 10 μM) | A6 radioligand binding, percentage inhibition ([3]; [125I]-S36057): − (“−” indicates less than 50% inhibition at 10 μM) | A4 radioligand binding, percentage inhibition [4]: − (“−” indicates less than 50% inhibition at 10 μM) | A2 radioligand binding, percentage inhibition [5]: − (“−” indicates less than 50% inhibition at 10 μM) | A1 radioligand binding, percentage inhibition [6]: − (“−” indicates less than 50% inhibition at 10 μM) | A5 radioligand binding, percentage inhibition [7]: + (“+” indicates greater than 50% inhibition at 10 μM) | A10 radioligand binding, percentage inhibition [8]: − (“−” indicates less than 50% inhibition at 10 μM) | A3 radioligand binding, percentage inhibition [9]: − (“−” indicates less than 50% inhibition at 10 μM) | A9 radioligand binding, percentage inhibition [10]: − (“−” indicates less than 50% inhibition at 10 μM) | A7 radioligand binding, percentage inhibition [11]: − (“−” indicates less than 50% inhibition at 10 μM)

CSC1OC(COCc2cccc(N)c2)C(O)C(OCc2ccc(Cl)cc2)C1NC(=O)C=Cc1ccccc1 (stereo not shown) [compound 329]
A8: inhibition of radioligand binding, human neurokinin (NK1) [1]: + (“+” indicates greater than 50% inhibition at 10 μM) | A11: inhibition of radioligand binding, mouse urotensin (mUR2) [2]: − (“−” indicates less than 50% inhibition at 10 μM) | A6: inhibition of radioligand binding, human melanin-concentrating hormone (MCH1) ([3]; [125I]-S36057): − (“−” indicates less than 50% inhibition at 10 μM) | A4: inhibition of radioligand binding, human melanocortin (MC4) [4]: − (“−” indicates less than 50% inhibition at 10 μM) | A2: inhibition of radioligand binding, human κ-opioid (KOP) [5]: − (“−” indicates less than 50% inhibition at 10 μM) | A1: inhibition of radioligand binding, human δ-opioid (DOP) [6]: − (“−” indicates less than 50% inhibition at 10 μM) | A5: inhibition of radioligand binding, human melanocortin (MC5) [7]: − (“−” indicates less than 50% inhibition at 10 μM) | A10: inhibition of radioligand binding, human opioid (ORL1) [8]: − (“−” indicates less than 50% inhibition at 10 μM) | A3: inhibition of radioligand binding, human melanocortin (MC3) [9]: − (“−” indicates less than 50% inhibition at 10 μM) | A9: inhibition of radioligand binding, human neuropeptide Y (NPY-Y1) [10]: − (“−” indicates less than 50% inhibition at 10 μM) | A7: inhibition of radioligand binding, human μ-opioid (MOP) [11]: − (“−” indicates less than 50% inhibition at 10 μM)

N=C(N)NCC(=O)N[C@H]1C(OCc2ccc(Cl)cc2)O[C@H](COCc2ccc(Cl)cc2)[C@@H](O)[C@@H]1OCc1ccc2ccccc2c1 (stereo partly shown) [compound 516]
A8: inhibition of radioligand binding, human neurokinin (NK1) [1]: + (“+” indicates greater than 50% inhibition at 10 μM) | A11: inhibition of radioligand binding, mouse urotensin (mUR2) [2]: − (“−” indicates less than 50% inhibition at 10 μM) | A6: inhibition of radioligand binding, human melanin-concentrating hormone (MCH1) ([3]; [125I]-S36057): + (“+” indicates greater than 50% inhibition at 10 μM) | A4: inhibition of radioligand binding, human melanocortin (MC4) [4]: + (“+” indicates greater than 50% inhibition at 10 μM) | A2: inhibition of radioligand binding, human κ-opioid (KOP) [5]: − (“−” indicates less than 50% inhibition at 10 μM) | A1: inhibition of radioligand binding, human δ-opioid (DOP) [6]: − (“−” indicates less than 50% inhibition at 10 μM) | A5: inhibition of radioligand binding, human melanocortin (MC5) [7]: + (“+” indicates greater than 50% inhibition at 10 μM) | A10: inhibition of radioligand binding, human opioid (ORL1) ([8]; 10 µM): − (“−” indicates less than 50% inhibition at 10 μM) | A3: inhibition of radioligand binding, human melanocortin (MC3) [9]: + (“+” indicates greater than 50% inhibition at 10 μM) | A9: inhibition of radioligand binding, human neuropeptide Y (NPY-Y1) [10]: − (“−” indicates less than 50% inhibition at 10 μM) | A7: inhibition of radioligand binding, human μ-opioid (MOP) [11]: − (“−” indicates less than 50% inhibition at 10 μM)
